Results: PubChem BioAssay (NCI)
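Growth conditions: 96-well plates. Treatment: test compound, 48 hours, 5 concentrations. Analysis: linear interpolation between bracketing concentrations; unreached endpoints set to highest concentration. TGI: concentration producing complete growth inhibition.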

What was measured:
Experiment in all cases: NCI-60 cell line screen, 48 h
[1] = system: T-47D breast
[2] = system: LOX IMVI melanoma
[3] = system: A498 renal
[4] = system: SW-620 colon
[5] = system: HS 578T breast
[6] = system: NCI-H23 lung
[7] = system: ACHN renal
[8] = system: SN12C renal
[9] = system: MCF7 breast
[10] = system: HCC-2998 colon
[11] = system: HL-60(TB) leukemia
[12] = system: MALME-3M melanoma
[13] = system: CAKI-1 renal
[14] = system: UACC-257 melanoma
[15] = system: DU-145 prostate
[16] = system: MDA-N
[17] = system: A549 NSCLC
[18] = system: BT-549 breast
[19] = system: EKVX NSCLC
[20] = system: OVCAR-4 ovarian
[21] = system: SK-MEL-5 melanoma
[22] = system: SF-539 CNS
[23] = system: HOP-62 NSCLC
[24] = system: UACC-62 melanoma
[25] = system: PC-3 prostate
[26] = system: SF-268 CNS
[27] = system: HT29 colon
[28] = system: SNB-19 CNS
[29] = system: RXF 393 renal
[30] = system: HOP-92 NSCLC
[31] = system: OVCAR-3 ovarian
[32] = system: 786-0 renal
[33] = system: RPMI-8226 leukemia
[34] = system: SK-OV-3 ovarian
[35] = system: TK-10 renal
[36] = system: SK-MEL-28 melanoma
[37] = system: OVCAR-5 ovarian
[38] = system: HCT-15 colon
[39] = system: HCT-116 colon
[40] = system: MDA-MB-231 breast
[41] = system: OVCAR-8 ovarian
[42] = system: CCRF-CEM leukemia
[43] = system: U251 CNS
[44] = system: COLO 205 colon
[45] = system: NCI-H522 lung
[46] = system: SF-295 CNS
[47] = system: SK-MEL-2 melanoma
[48] = system: M14 melanoma
[49] = system: NCI/ADR-RES ovarian
[50] = system: IGROV1 ovarian
[51] = system: MOLT-4 leukemia
[52] = system: MDA-MB-435
[53] = system: NCI-H460 lung
[54] = system: KM12 colon
[55] = system: SR leukemia
[56] = system: UO-31 renal
[57] = system: SNB-75 CNS
[58] = system: NCI-H226 lung
[59] = system: K-562 leukemia

`CCCCCC(C)C[C@H]1CO[C@H](c2ccc[nH]2)N[C@H]1C(=O)OC` (stereo not given in full) was tested, and the TGI [1] was > 100 µM, the TGI [2] was > 100 µM and the TGI [3] was > 100 µM. For the same compound, the TGI [4] was > 100 µM, the TGI [5] was > 100 µM and the TGI [6] was > 100 µM. For the same compound, the TGI [7] was > 100 µM, the TGI [8] was > 100 µM and the TGI [9] was > 100 µM. For the same compound, the TGI [10] was > 100 µM, the TGI [11] was > 100 µM and the TGI [12] was > 100 µM. The TGI [13] was > 100 µM, the TGI [14] was > 100 µM and the TGI [15] was > 100 µM. For the same compound, the TGI [16] was > 100 µM, the TGI [17] was > 100 µM and the TGI [18] was > 100 µM. The TGI [19] was > 100 µM, the TGI [20] was > 100 µM and the TGI [21] was > 100 µM. For the same compound, the TGI [22] was > 100 µM, the TGI [23] was > 100 µM and the TGI [24] was > 100 µM. For the same compound, the TGI [25] was > 100 µM, the TGI [26] was > 100 µM and the TGI [27] was > 100 µM. For the same compound, the TGI [28] was > 100 µM, the TGI [29] was > 100 µM and the TGI [30] was > 100 µM. The TGI [31] was > 100 µM, the TGI [32] was > 100 µM and the TGI [33] was > 100 µM. For the same compound, the TGI [34] was > 100 µM, the TGI [35] was > 100 µM and the TGI [36] was > 100 µM. The TGI [37] was > 100 µM, the TGI [38] was > 100 µM and the TGI [39] was > 100 µM. The TGI [40] was > 100 µM, the TGI [41] was > 100 µM and the TGI [42] was > 100 µM. For the same compound, the TGI [43] was > 100 µM, the TGI [44] was > 100 µM and the TGI [45] was > 100 µM. For the same compound, the TGI [46] was > 100 µM, the TGI [47] was > 100 µM and the TGI [48] was > 100 µM. The TGI [49] was > 100 µM, the TGI [50] was > 100 µM and the TGI [51] was > 100 µM. The TGI [52] was > 100 µM, the TGI [53] was > 100 µM and the TGI [54] was > 100 µM.
For `COc1nc2c(c(=O)n1C)N[C@@H]1[C@@H](O)[C@H](O)CO[C@@H]1N2`, the TGI [1] was > 100 µM, the TGI [55] was > 100 µM and the TGI [2] was > 100 µM. For the same compound, the TGI [3] was > 100 µM, the TGI [4] was > 100 µM and the TGI [5] was > 100 µM. The TGI [56] was > 100 µM, the TGI [8] was > 100 µM and the TGI [9] was > 100 µM. The TGI [11] was > 100 µM, the TGI [12] was > 100 µM and the TGI [13] was > 100 µM. The TGI [14] was > 100 µM, the TGI [15] was > 100 µM and the TGI [16] was > 100 µM. The TGI [17] was > 100 µM, the TGI [18] was > 100 µM and the TGI [19] was > 100 µM. For the same compound, the TGI [20] was > 100 µM, the TGI [21] was > 100 µM and the TGI [22] was > 100 µM. The TGI [57] was > 100 µM, the TGI [23] was > 100 µM and the TGI [24] was > 100 µM. The TGI [25] was > 100 µM, the TGI [26] was > 100 µM and the TGI [27] was > 100 µM. For the same compound, the TGI [28] was > 100 µM, the TGI [29] was > 100 µM and the TGI [31] was > 100 µM. The TGI [32] was > 100 µM, the TGI [33] was > 100 µM and the TGI [58] was > 100 µM. For the same compound, the TGI [34] was > 100 µM, the TGI [35] was > 100 µM and the TGI [36] was > 100 µM. The TGI [37] was > 100 µM, the TGI [38] was > 100 µM and the TGI [39] was > 100 µM. For the same compound, the TGI [41] was > 100 µM, the TGI [42] was > 100 µM and the TGI [59] was > 100 µM. The TGI [43] was > 100 µM, the TGI [44] was > 100 µM and the TGI [45] was > 100 µM. The TGI [46] was > 100 µM, the TGI [47] was > 100 µM and the TGI [48] was > 100 µM. The TGI [49] was > 100 µM, the TGI [50] was > 100 µM and the TGI [51] was > 100 µM. The TGI [52] was > 100 µM, the TGI [53] was > 100 µM and the TGI [54] was > 100 µM.
Compound `C/C(=N/O)c1cccc(Nc2nc3ccccc3c3[nH]c4ccccc4c23)c1` has a TGI [1] of 3.82 µM, a TGI [55] of 3.85 µM and a TGI [2] of 6.06 µM. The TGI [4] was 19.4 µM, the TGI [5] was 21.4 µM and the TGI [6] was 11.8 µM. The TGI [7] was 7.17 µM, the TGI [56] was 12 µM and the TGI [8] was 13.4 µM. For the same compound, the TGI [9] was 5.63 µM, the TGI [11] was 8.23 µM and the TGI [12] was 13.8 µM. For the same compound, the TGI [13] was 6.89 µM, the TGI [14] was 17.6 µM and the TGI [15] was 5.59 µM. It also gave a TGI [16] of 7.56 µM, a TGI [17] of 8.8 µM and a TGI [18] of 34.7 µM. For the same compound, the TGI [19] was 7.38 µM, the TGI [20] was 6.96 µM and the TGI [21] was 4.08 µM. It also gave a TGI [22] of 23.9 µM, a TGI [57] of 6.95 µM and a TGI [23] of 8.83 µM. For the same compound, the TGI [24] was 4.65 µM, the TGI [25] was 8.05 µM and the TGI [26] was 6.24 µM. The TGI [27] was 6.51 µM, the TGI [28] was 19.2 µM and the TGI [29] was 4.59 µM. For the same compound, the TGI [30] was 6.95 µM, the TGI [31] was 5.1 µM and the TGI [32] was 6.96 µM. For the same compound, the TGI [58] was 21 µM, the TGI [34] was 22.1 µM and the TGI [35] was 15.6 µM. It also gave a TGI [36] of 12.4 µM, a TGI [37] of 9.27 µM and a TGI [38] of 10.6 µM. For the same compound, the TGI [39] was 4.77 µM, the TGI [40] was 11.5 µM and the TGI [41] was > 24.4 µM. For the same compound, the TGI [42] was > 100 µM, the TGI [59] was 10.6 µM and the TGI [43] was 11.5 µM. The TGI [44] was 7.1 µM, the TGI [45] was 4.4 µM and the TGI [46] was 5.58 µM. The TGI [47] was 5.8 µM, the TGI [48] was 6.3 µM and the TGI [49] was 20 µM. For the same compound, the TGI [50] was 13.3 µM, the TGI [51] was 3.55 µM and the TGI [52] was 7.52 µM. It also gave a TGI [53] of 4.74 µM and a TGI [54] of 9.92 µM.
With `COc1ccc([N+](=O)[O-])c2c(NCC(O)CO)ccnc12` (stereo not given) the TGI [1] was > 100 µM, the TGI [55] was > 100 µM and the TGI [2] was > 100 µM. The TGI [3] was 76.9 µM, the TGI [4] was > 100 µM and the TGI [5] was > 100 µM. The TGI [6] was 40.4 µM, the TGI [7] was > 100 µM and the TGI [56] was > 100 µM. For the same compound, the TGI [8] was > 100 µM, the TGI [9] was > 100 µM and the TGI [10] was > 100 µM. The TGI [11] was > 100 µM, the TGI [12] was 44.7 µM and the TGI [13] was > 100 µM. For the same compound, the TGI [14] was 95.9 µM, the TGI [15] was > 100 µM and the TGI [16] was > 100 µM. The TGI [17] was > 100 µM, the TGI [18] was 56 µM and the TGI [19] was 82.3 µM. For the same compound, the TGI [20] was 45.7 µM, the TGI [21] was 60.8 µM and the TGI [22] was 90.1 µM. The TGI [57] was > 100 µM, the TGI [23] was > 100 µM and the TGI [24] was 58.9 µM. For the same compound, the TGI [25] was > 100 µM, the TGI [26] was > 100 µM and the TGI [27] was > 100 µM. For the same compound, the TGI [28] was > 100 µM, the TGI [29] was > 100 µM and the TGI [31] was 70 µM. For the same compound, the TGI [32] was > 100 µM, the TGI [33] was > 100 µM and the TGI [34] was > 100 µM. The TGI [35] was > 100 µM, the TGI [36] was > 100 µM and the TGI [37] was > 100 µM. For the same compound, the TGI [38] was 35.1 µM, the TGI [39] was > 100 µM and the TGI [40] was > 100 µM. For the same compound, the TGI [41] was > 100 µM, the TGI [42] was > 100 µM and the TGI [59] was > 100 µM. For the same compound, the TGI [43] was > 100 µM, the TGI [44] was 53.6 µM and the TGI [45] was 30.2 µM. The TGI [46] was > 100 µM, the TGI [47] was 71.9 µM and the TGI [48] was > 100 µM. For the same compound, the TGI [50] was 97.5 µM, the TGI [51] was > 100 µM and the TGI [52] was > 100 µM. The TGI [53] was 52 µM and the TGI [54] was > 100 µM.
